Results reported in article PMC5338303, “Unveiling the Metabolic Changes on Muscle Cell Metabolism Underlying p-Phenylenediamine Toxicity” (Frontiers in Molecular Biosciences, 2017).
Several values for one entry are separate records, joined by “and”; a condition that tells them apart may be missing. Identical values can stand only once. Like-named read-outs stand apart in the source and are kept apart here.

Columns and labels:
C2C12 cells [1] = assay: Cell cycle analysis (FACS, propidium iodide); format: cell-based, Mus musculus mouse; details: vs untreated cells
Experimental: Cell cycle was evaluated by measuring FACS (fluorescence-activated cell sorter) in an Epics XL flow cytometer at 488 nm (Coulter Corporation, Hialeah, FL, USA). This technique allows for the semiquantitation of DNA in each cell and permits to separate cells in G0 or G1 phase (one copy of DNA), G2 or M phase (after DNA duplication) and S phase (the amount of DNA per cell is in an intermediate state between the two previous conditions). For these measurements, C2C12 cells were cultivated in 6 well-plates (4 × 10^5 cells/well each) with 2 ml of culture medium. After 24 h of plated, PPD corresponding to IC50 and IC80 concentrations was added and cells were incubated for 24 h, in parallel, control C2C12 cells were cultured without PPD. All experiments were performed five times with two replicates for each experiment.

Wistar female rats [2] = assay: Blood packed cell volume, hemoglobin, organ weights and histology; format: in vivo, rat
Experimental: (§1) The animals were divided into groups of three rats at random. A control group receiving the vehicle and four groups receiving PPD at several concentrations 10, 20, 40, and 60 mg/kg at single dose were included (Figure 1). The compound was administered in a volume of 300 μl of 100% DMSO by gavage. Animals were evaluated based on general appearance, behavior and signs of morbidity using the Irwin test (Castagné et al., [2012]), immediately following administration, 30 min, 1, 2, 4, and 8 h after the administration (Figure 1). All of the animals were weighed just before the acclimatization period, before administration and 24, 48, and 72 h after administration. At the end of the observation period (24, 48, and 72 h after administration), all the animals were anesthetized and blood samples were collected from tail and retro orbital sinus and centrifuged at 2000 × g for 30 min at 4°C to recover the serum (Figure 1). The serum was frozen and stored at −20°C until determination of biochemical parameters such as urea, creatinin, Glucose, aspartate aminotransferase (AST), alanine aminotransferase (ALT) and creatine kinase (CK), lactate dehydrogenase (LDH), at 24, 48, and 72 h before sacrificed in a CO2 chamber and autopsied. All of the tissues were observed grossly. Ovaries, kidneys, liver, spleen, heart, and lung were weighed and the relative organ weights were calculated. Serum CK and LDH levels were measured.

C2C12 cells [3] = assay: Cell viability assay (MTT); format: cell-based, Mus musculus mouse; details: for IC50: read-out: IC50 (cell proliferation, MTT); for IC80: read-out: IC80 (cell proliferation, MTT)
Experimental: C2C12 cells from Mus musculus mouse were cultured in DMEM (Dulbecco's Modified Eagle's medium) with 10 mg/ml of streptomycin, 2 mM glutamine, 10,000 units/ml of penicillin and 10% heat-inactivated FCS, until subconfluence was reached. For biochemical characterization, C2C12 cells were cultured in DMEM, supplemented with 4 mM asparagine without glutamine, 10 mg/ml of streptomycin, 10,000 units/ml of penicillin and 10% heat-inactivated FCS.
The absorbance of MTT [3-(4,5-Dimethylthiazol-2-Yl)-2,5-Diphenyltetrazolium Bromide] dye staining of living cells was used to determine cell viability (Pachon et al., [2007]; Pachón et al., [2008]). Here, 3.5 × 10^3 C2C12 cells/well were cultured in 96 well-plates at different PPD concentrations (from 1 to 100 μg/ml). An ELISA plate reader (Tecan Sunrise MR20-301, TECAN, Austria) was used to determine the relative cell viability, the absorbance was determined at 550 nm. Cell survival rate relative to untreated cells after 24 h of treatment was used to estimate the concentrations that caused 50% (IC50) and 80% (IC80) of inhibition of C2C12 at that time.

Wistar female rats [4] = assay: Toxicity after oral administration; general appearance, behavior and signs of morbidity (Irwin test); format: in vivo, rat; set-up: key to Myoglobiunuria: ++ represents the presence of myoglobinuria; details: for Ataxic Gait / Hypotonic Gait: animals affected/group; for Hipoactivity / Piloerection: duration
Experimental: The study was approved by the Ethics Committee on Animal Experimentation of University of Navarra. Wistar female rats, with a body weight of 160 g ± 20% (8 weeks old), were supplied by Harlan (Harlan Laboratories, Indianapolis, IN). The animals were housed in polycarbonate cages with stainless steel covers in a room under controlled temperature conditions (22 ± 3°C), controlled relative humidity (50 ± 20%) and light (12 h light–dark cycle). Air was exchanged 15 times/h sterile food supplied by Harlan (Harlan Laboratories, Indianapolis, IN) and controlled water was available ad libitum. The rats were housed in the study room for 5 days prior to the beginning of treatment in order to allow acclimatization to the environmental conditions. Finally, three rats were randomly assigned to each studied group corresponding to different PPD doses (10, 20, 40, and 60 mg/Kg) and control (DMSO).
as §1

C2C12 cells [5] = assay: Biochemical characterization: glucose and lactate concentrations in culture medium; format: cell-based, Mus musculus mouse; details: PPD at IC50, 24 h
Experimental: Glucose and lactate concentrations were determined from culture medium at initial and end-time points by using Cobas Mira Plus chemistry analyzer (HORIBA ABX, Montpellier, France; Cisternas et al., [2016]).
(§2) Cells were cultured in DMEM (Biowithaker) °supplemented with 10% dialyzed heat-inactivated Fetal Bovine Serum (FBS), glucose (10 mM, 50% isotope enrichment [1,2-^13C2]-glucose), asparagine (20 mg/ml), penicillin (100 U/ml), and streptomycin (100 μg/ml). […] Initially each flask contained 10^6 cells and the incubation was carried out for 24 h. To separate medium and cell pellets, cells were centrifuged at the end of incubation (3000 × g, 5 min). Afterwards, pellet and medium were stored at −20°C for metabolite isolations.

Wistar female rats [6] = assay: Serum biochemical parameters (AST, ALT, CK, LDH); format: in vivo, rat; details: 40 and 60 mg/kg
Experimental: as §1

C2C12 cells [7] = assay: Annexin V-Fluorescein isothiocyanate binding assay (apoptosis); format: cell-based, Mus musculus mouse
Text: This technique permits to determine whether a cell is at early or late apoptosis or necrotic state. In early apoptosis, Phosphatidylserine (PS) is translocated to the outer membrane allowing PS-annexin V-Fluorescein Isothiocyanate (FITC) binding. In late apoptosis, as well as in necrotic processes, cell membranes lose their integrity allowing PI to access the nucleus and bind the DNA bases. Next, by using FACS analysis one can determine PI and annexin V-FITC staining accumulation to differentiate non-apoptotic cells (PI– and annexin V–) from early apoptotic (PI− and annexin V+) and necrotic or late apoptotic (PI+) cells (Cortés et al., [2012]). The same amount of C2C12 cells mentioned for cell cycle assay was treated with PPD as previously described. Cells were then collected and resuspended in binding buffer (10 mM Hepes/NaOH, pH7.4, 140 mM NaCl, 2.5 mM CaCl2). Annexin V-FITC conjugate (1 μg/ml) was added and incubated for 30 min at room temperature in the dark. Just before FACS analysis [Bender medSystems (Innogenetics) human Annexin V-FITC Kit cat No. BMS306FI], cells were stained with 1 mg/ml PI solution. In each experiment ~20 × 10^3 cells per condition were analyzed and the experiment was performed five times.

[8] = test system: central carbon metabolic pathways of C2C12 cells; assay: Mass isotopomer distribution analysis (MIDA) with [1,2-13C2]-glucose, GC/MS; format: cell-based, Mus musculus mouse
Experimental: To track and measure the substrate carbon flux through central carbon metabolic pathways of C2C12 cells when treated with PPD, mass isotopomer distribution analysis (MIDA), and metabolic modeling approaches were used.
as §2
• Glucose. A mixed DOWEX 50-DOWEX 1 ionic exchange column was used to corroborate that the original medium contained 50% of labeled glucose ([1,2-^13C2] D-glucose). First, 500 μl of medium and after 6 ml of milliQ water were passed through the column and were collected into a glass tube. Next, it was lyophilized for 12 h to eliminate the remaining liquid and the dried sample was stored. Finally, hydroxyl-amine in pyridine and acetic anhydride were used to derivatize glucose to its aldonitrile form. The ion cluster was set to m/z 328 (C1–C6, chemical ionization; Wamelink et al., [2008]). • Glycogen. Glycogen for biochemical and isotopomerics distribution determination was extracted as described in Burchert ([2007]), by direct digestion of sonicated extracts with amyloglucosidase. Measurement of glucose released from glycogen was done by using the isotopomer [U-13C6-1,2,3,4,5,6,6-D7]D-glucose (or [U-13C-D7]-glucose as shorter name) as recovery standard and internal standard quantification procedures. […] We monitored the ion cluster around the m/z 328 (C1–C6, chemical ionization; Wamelink et al., [2008]). • Lactate. […] Next, the m/z 328 was monitored (C1–C3, chemical ionization, Wamelink et al., [2008]). • Ribose from RNA. […]

Structure (SMILES): Nc1ccc(N)cc1 [PPD, p-phenylenediamine]
- decrease in the percentage of cells in G0/G1 phases (C2C12 cells [1]; PPD at IC50, 24 h): 19%
- increase in the population in S phase (C2C12 cells [1]; PPD at IC50, 24 h): 13%
- decrease in the percentage of cells in G0/G1 phases (C2C12 cells [1]; PPD at IC80, 24 h): 32%
- increase in the population in S phase (C2C12 cells [1]; PPD at IC80, 24 h): 28%
- organs weight (Wistar female rats [2]; 48 and 72 h, any condition): No significant differences
- Blood packed cell volume (Wistar female rats [2]; any condition (10-60 mg/kg)): No significant differences
- hemoglobin levels (Wistar female rats [2]; any condition (10-60 mg/kg)): No significant differences
- Histological analysis of extracted organs (Wistar female rats [2]; vs controls): patterns similar to controls
- IC50 (C2C12 cells [3]; C2C12, 24 h): 154 µM
- IC80 (C2C12 cells [3]; C2C12, 24 h): 201 ± 8 µM
- IC50 (C2C12 cells [3]; C2C12, 48 h): 108 ± 8 µM
- IC80 (C2C12 cells [3]; C2C12, 48 h): 182 ± 12 µM
- IC50 (C2C12 cells [3]; C2C12, 72 h): 59 ± 1 µM
- IC80 (C2C12 cells [3]; C2C12, 72 h): 91 ± 7 µM
- Myoglobiunuria (Wistar female rats [4]; 10 mg/kg single oral dose): ++
- Ataxic Gait (Wistar female rats [4]; 10 mg/kg single oral dose): 0/3
- Hypotonic Gait (Wistar female rats [4]; 10 mg/kg single oral dose): 0/3
- Hipoactivity (Wistar female rats [4]; 10 mg/kg single oral dose): 10 h
- Piloerection (Wistar female rats [4]; 10 mg/kg single oral dose): 2 to 4 h
- Myoglobiunuria (Wistar female rats [4]; 20 mg/kg single oral dose): ++
- Ataxic Gait (Wistar female rats [4]; 20 mg/kg single oral dose): 0/3
- Hypotonic Gait (Wistar female rats [4]; 20 mg/kg single oral dose): 0/3
- Hipoactivity (Wistar female rats [4]; 20 mg/kg single oral dose): 10 h
- Piloerection (Wistar female rats [4]; 20 mg/kg single oral dose): 2 to 4 h
- Hipoactivity (Wistar female rats [4]; 40 mg/kg single oral dose): 24 h
- Piloerection (Wistar female rats [4]; 40 mg/kg single oral dose): Until death
- Ataxic Gait (Wistar female rats [4]; 60 mg/kg single oral dose): 0/3
- Hypotonic Gait (Wistar female rats [4]; 60 mg/kg single oral dose): 3/3
- Hipoactivity (Wistar female rats [4]; 60 mg/kg single oral dose): 48 h
- Piloerection (Wistar female rats [4]; 60 mg/kg single oral dose): Until death
- gait (Wistar female rats [4]; 60 mg/kg, after 48 h, disappeared after 72 h): ataxic gait
- signs observed at lower doses (Wistar female rats [4]; 10 and 20 mg/kg, until 10 h of treatment): depressed activity and some of they had brown color urine or myoglobinuria
- signs observed at higher doses (Wistar female rats [4]; 40 and 60 mg/kg, until 4 h of treatment): total loss of equilibrium, hypotonic gait and piloerection
- urine color (Wistar female rats [4]; after 24 h of treatment, disappears at 48 and 72 h): all animals had urine brown color but in absence of hematuria
- evolution of body weight (Wistar female rats [4]; all groups, 10-60 mg/kg, up to 72 h): normal
- persistence of muscular weakness (Wistar female rats [4]; rat, in vivo): 3 days
- glucose consumption (Δglucose) (C2C12 cells [5]): 2,42 ± 0,26 mM
- lactate production (Δlactate) (C2C12 cells [5]): 1,5 ± 0,3 mM
- ALT in serum (Wistar female rats [6]; 24, 48 and 72 h): increased
- AST in serum (Wistar female rats [6]; 24, 48 and 72 h): increased
- CK in serum (Wistar female rats [6]; 24 h): increased
- LDH in serum (Wistar female rats [6]; 24 h): increased
- early apoptosis (C2C12 cells [7]; PPD at IC50, 24 h): 34.7%
- late apoptosis (C2C12 cells [7]; PPD at IC50, 24 h): 18.8%
- early apoptosis (C2C12 cells [7]; PPD at IC80, 24 h): 20.1%
- late apoptosis (C2C12 cells [7]; PPD at IC80, 24 h): 23.9%
- total glycogen reservoirs ([8]; 24 h, no significant differences between groups): 10,1 μg
- Glycolitic rate = [Δlactate × m2lactate]/[Δglucose × m2glucose] ([8]; PPD at IC50, 24 h, not significantly different from control): 28,8 ± 14%
- ox/non-ox ratio of pentose-phosphate pathway = m1 + m3 / (m2 + m3 + 2m4) ([8]; RNA ribose, PPD at IC50, 24 h): 2,224 ± 0,189 and 2.224 ± 0.189
